Reference: patent US20050245520A1, “2-Phenylpyridin-4-yl derivatives as alk5 inhibitors” (priority 2002, published 2005)
Like-named read-outs stand apart in the source and are kept apart here.

Key:
[1] = target: T1, recombinant GST-ALK5 (residues 198-503) (Homo sapiens, UniProt P36897); assay: Alk5 fluorescence polarization assay (displacement of rhodamine green-labelled ligand); type: binding
T1 construct: assays using recombinant GST-ALK5 (residues 198-503)
T1 sequence (P36897 198-503): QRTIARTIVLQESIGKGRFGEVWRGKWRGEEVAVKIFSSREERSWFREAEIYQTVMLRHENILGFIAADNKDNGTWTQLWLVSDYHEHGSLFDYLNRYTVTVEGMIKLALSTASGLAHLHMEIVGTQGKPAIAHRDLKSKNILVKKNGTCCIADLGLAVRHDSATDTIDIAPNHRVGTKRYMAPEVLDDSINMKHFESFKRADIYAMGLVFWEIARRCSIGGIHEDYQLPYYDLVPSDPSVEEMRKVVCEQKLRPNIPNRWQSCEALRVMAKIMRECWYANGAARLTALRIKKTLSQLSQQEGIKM
Experimental: Kinase inhibitor compounds conjugated to fluorophores, can be used as fluorescent ligands to monitor ATP competitive binding of other compounds to a given kinase. The increase in depolarization of plane polarized light, caused by release of the bound ligand into solution, is measured as a polarization/anisotropy value.
The compounds were serially diluted (3-fold in 100% DMSO) across the plate to column 11 to yield 11 concentrations for each test compound. Column 12 contained only DMSO.
ALK5 was added to assay buffer containing the above components and 1 nM of the rhodamine green-labelled ligand so that the final ALK5 concentration was 10 nM based on active site titration of the enzyme. The enzyme/ligand reagent (39 μl) was added to each well of the previously prepared assay plates. […] The plates were read immediately on a LJL Acquest fluorescence reader (Molecular Devices, serial number AQ1048) with excitation, emission, and dichroic filters of 485 nm, 530 nm, and 505 nm, respectively. The fluorescence polarization for each well was calculated by the Acquest reader and then imported into curve fitting software for construction of concentration response curves. The normalized response was determined relative to the high controls (1 μl DMSO in column 12, rows A-D) and the low controls (1 μl of control compound in column 12, rows E-H). An IC50 value was then calculated for each compound

[2] = system: TGF-β signalling (PAI-1 promoter-luciferase in HepG2 cells); assay: Cellular transcriptional assay: PAI-1 promoter firefly luciferase reporter in cells exposed to TGF-β; type: cell-based; settings: HepG2 cells, 1 ng/mL rhTGFβ-1
Experimental: Assay 1 (Cellular Transcriptional Assay)
The assay was performed in HepG2 cells stably transfected with the PAI-1 promoter (known to be a strong TGF-β responsive promoter) linked to a luciferase (firefly) reporter gene. The compounds were selected on their ability to inhibit luciferase activity in cells exposed to TGF-β. In addition, cells were transfected with a second luciferase (Renilla) gene which was not driven by a TGF-β responsive promoter and was used as a toxicity control.
96 well microplates were seeded, using a multidrop apparatus, with the stably transfected cell line at a concentration of 35000 cells per well in 200 μl of serum-containing medium. These plates were placed in a cell incubator.
18 to 24 hours later (Day 2), cell-incubation procedure was launched. Cells were incubated with TGF-β and a candidate compound at concentrations in the range 50 nM to 10 μM (final concentration of DMSO 1%). The final concentration of TGF-β (rhTGFβ-1) used in the test was 1 ng/mL. Cells were incubated with a candidate compound 15-30 mins prior to the addition of TGF-β. The final volume of the test reaction was 150 μl. Each well contained only one candidate compound and its effect on the PAI-1 promoter was monitored.
Columns 11 and 12 were employed as controls. Column 11 contained 8 wells in which the cells were incubated in the presence of TGF-β, without a candidate compound. Column 11 was used to determine the ‘reference TGF-β induced firefly luciferase value’ against which values measured in the test wells (to quantify inhibitory activity) were compared. […]
12 to 18 hours later (day 3), the luciferase quantification procedure was launched. […] Following agitation (15 to 30 mins), luciferase activities of the plates were read in a dual-injector luminometer (BMG lumistar). For this purpose, 50 μl of luciferase assay reagent and 50 μl of ‘Stop & Glo’ buffer were injected sequentially to quantify the activities of both luciferases. […] For each of the compounds tested, a concentration response curve was constructed from which an IC50 value was determined graphically.

Row | IC50 ([1]; fluorescence polarization, 10 nM ALK5, 1 nM labelled ligand, read-out: ALK5 receptor modulator activity (IC50)) | IC50 [2] | IC50 [1] | IC50 ([2]; Homo sapiens) | SMILES
1 | 34 nM | 183 nM | – | – | Cc1cccc(-c2[nH]c(C(C)(C)C)nc2-c2ccnc(-c3ccc(N4CCOCC4)cc3)c2)n1 [Example 86, 4-{4-[4-(2-tert-Butyl-5-{6-methyl}-pyridin-2-yl-1 H-imidazol-4-yl)-pyridin-2-yl]-phenyl}-morpholine]
2 | – | – | 25 nM | < 14 nM | Cc1cccc(-c2nc(C(C)C)[nH]c2-c2ccnc(-c3ccc(C(=O)NC4CCOCC4)cc3)c2)n1 [Example 96, N-(tetrahydropyran-4-yl)-4-(4-{2-isopropyl-5-[6-methyl-pyridin-2-yl]-1H-imidazol-4-yl}-pyridin-2-yl)-benzamide]
